Measured values: US20200397894A1, “COMPOSITIONS AND METHODS FOR TREATING CANCER” (University of Virginia Patent Foundation, priority 2016, published 2020)
Where “and” joins values, the source holds several entries; their conditions need not be identical. Identical values can stand only once.

Experiments:
Cal27 xenografts = assay: HNSCC flank xenograft in nude mice; assay type: in vivo
Protocol: The animal studies were conducted in accordance with the guidelines established by the University of Virginia Animal Care and Use Committee (ACUC). The effect of pevonedistat on tumor growth was tested in a flank HNSCC xenograft model. 4-5 weeks old Foxn1^nu athymic female nude immunodeficient mice (20-25 g body weight; Harlan Laboratories, now Envigo, Indianapolis, Ind., United States of America) were used. Pevonedistat was prepared in 10% DMSO containing PBS and filtered before use. 5×10^6 Cal27 cells (suspended in 200 μl sterile PBS) were inoculated subcutaneously in both flanks of nude mice (8 mice per group). When the tumor size reached 100 mm^3 (10 days post-inoculation), mice were randomized and were treated with pevonedistat (20 mg/kg), or with control vehicle (DMSO), administered intraperitoneally on a regimen of 5 days on/5 days off for 2 cycles (Tardat et al., 2010). Tumors from a third group of mice were exposed to 1Gy irradiation (IR) daily, 5 days/week for 3 weeks, and a fourth group of mice received both pevonedistat and IR treatments. Tumor irradiation was performed at the University of Virginia X-Ray facility, and only the tumors on both flanks were irradiated while the rest of animal body was shielded. For combination treatment, pevonedistat was given 2 hours prior to radiation exposure with the same schedule as for the individual treatments. Tumor growth was monitored every other day using an electronic caliper, for 3 weeks post-treatment and average of tumor volumes were calculated using the formula (L×W^2)/2). The results are represented as the mean tumor volumes±s.e.m, and p<0.05 was considered significant.

Cal27 cells = assay: Clonogenic survival assay for radiation sensitivity; assay type: cell-based, human; set-up: SF4: unit not given here; details: for SF4: S 0.1; for SER (sensitivity enhancement ratio): at 10% survival
Protocol: (§1) The effect of pevonedistat treatment or transient silencing of CDT2, geminin, or EMI1 on cell proliferation or on radiation sensitivity was tested using clonogenic survival assays. Cells were transfected with the appropriate si-RNA 48 hours prior to seeding. Cells were then counted using COUNTESS™ Automated Cell Counter (INVITROGEN™, Carlsbad, Calif., United States of America) and were seeded at 15,000 cells/plate in 60 mm dishes. Cells were irradiated 24 hours after seeding with various doses and were cultured for 7-10 days. Once colonies reached the appropriate size (>50 cells each), cells were washed twice with cold PBS, fixed in cold 100% methanol for 10 minutes, and stained with crystal violet (0.5%) for 10 minutes. The plates were washed, dried, and imaged using IMAGE LAB™ software (BioRad Laboratories, Inc., Hercules, Calif., United States of America). QUANTITY ONE® software (BioRad Laboratories, Inc., Hercules, Calif., United States of America) was used to quantify the number of colonies and survival curves were established based on the linear quadratic model, using the formula S=e^−αD-βD2; where S represents the surviving fraction and D the dose of irradiation. Results are represented as mean standard deviation (SD) of three independent experiments normalized to the corresponding non-irradiated plates for each group. When the effect of pevonedistat on cell radiosensitivity was tested, cells were seeded at 15,000 cells/60 mm plate and allowed to adhere for 4-6 hours. Pevonedistat was then added upon cell adherence at varying concentrations and cells were irradiated the following day. The duration of the experiment and the stopping procedure were as described above.

FaDu cells = assay: as above; assay type: cell-based, human; set-up: SF4: unit not given here; details: for SF4: S 0.1; for SER (sensitivity enhancement ratio): at 10% survival
Protocol: as §1

DM13 cells = assay: Cell proliferation/viability MTT assay; assay type: cell-based; details: Homo sapiens, 96 hours
Protocol: Proliferation and viability of cultured cells was measured by CELLTITER96® Non-radioactive Cell Proliferation Assay (Promega Corporation; Madison, Wis., United States of America). Briefly, various wild type and mutant BRAF melanoma cells were seeded in 96 well plates and treated with pevonedistat, vemurafenib, or the combination pevonedistat and vemurafenib at various concentrations. Control cells were treated with DMSO. 96 hours following treatment, cells were stained with the dye solution according to the manufacturer's protocol. Absorbance was recorded at 570 nm and growth curves were established. To test the effect of transient exposure of melanoma cells to pevonedistat on rereplication and growth inhibition, washout experiments were conducted where melanoma cells or PIG3V melanocytes were treated with […] pevonedistat for different times (4, 8, 12, and 24 hours) before the drug was washed out by washing the cells twice with PBS, and adding drug-free fresh growth media to cells. Cells were counted every 24 hours using a COUNTESS™ Automated Cell Counter (INVITROGEN™, Carlsbad, Calif., United States of America), and harvested at the indicated times for PI staining and FACS analysis (cell cycle profile) or for immunoblotting.

Trl46 HNSCC cells = details: Trl46, 1 μM pevonedistat; cited from earlier work
[1] = test system: cullin neddylation in Cal27 or FaDu cells; assay: Immunoblotting of cullin neddylation; assay type: cell-based, human; details: 50 nM pevonedistat, 24 or 48 hours
Protocol: HNSCC cells were lysed using radio-immunoprecipitation assay (RIPA) lysis buffer (50 mM Tris, pH 8.0; 150 mM NaCl, 1% NP-40; 0.5% sodium deoxycolate; 0.1% SDS; 1 mM Benzamidin-HCl; 0.5 μg/ml Leupeptin; 0.5 μg/ml Aprotinin; 1 μg/ml pepstatin; 20 mM NaF; 20 mM Na3VO4). Equal amounts of protein were electrophoretically separated in a polyacrylamide 8-12% gel (Bio-Rad Laboratories, Inc., Hercules, Calif., United States of America), trans-blotted to a nitrocellulose membrane, and incubated with primary antibodies for one hour at room temperature or overnight at 4° C. The immunoblot signals were detected by enhanced chemiluminescence (EMD Millipore Corporation, Billerica, Mass., United States of America).

[2] = Cal27, 20 nM pevonedistat 24 hours prior to irradiation
[3] = Cal27, 40 nM pevonedistat 24 hours prior to irradiation
[4] = Cal27, 60 nM pevonedistat 24 hours prior to irradiation
[5] = Cal27, 80 nM pevonedistat 24 hours prior to irradiation
[6] = 10 nM pevonedistat 24 hours prior to irradiation
[7] = 20 nM pevonedistat 24 hours prior to irradiation
[8] = 40 nM pevonedistat 24 hours prior to irradiation
[9] = 60 nM pevonedistat 24 hours prior to irradiation

## NS(=O)(=O)OCC1CC(n2ccc3c(NC4CCc5ccccc54)ncnc32)CC1O [pevonedistat, ((1S,2S,4R)-4-(4-((1S)-2,3-Dihydro-H-inden-1-ylamino)-7H-pyrrolo(2,3-d)pyrimidin-7-yl)-2-hydroxycyclopentyl)methyl sulphamate]
Cal27 xenografts; 20 mg/kg IP, p=0.0211
  growth of Cal27 xenografts: significantly suppressed
Cal27 xenografts; 20 mg/kg pevonedistat plus 1 Gy IR daily, p=2×10^−3 vs. control
  growth of Cal27 xenografts, combined treatment with IR: more suppression than either treatment alone
Cal27 xenografts; nude mice, 20 mg/kg IP, 5 days on/5 days off, two cycles
  tolerability: well tolerated
Cal27 xenografts; weighed once a week during the entire experiment
  effect on mouse weight: no significant effect
Cal27 cells; [2]
  α (linear quadratic model): 1.50 × 10^−13
  β (linear quadratic model): 0.049
Cal27 cells; Cal27, 20 nM pevonedistat
  SF4: 6.893
  SER (sensitivity enhancement ratio): 1.171
Cal27 cells; [3]
  α (linear quadratic model): 0.108
  β (linear quadratic model): 0.052
Cal27 cells; Cal27, 40 nM pevonedistat
  SF4: 5.692
  SER (sensitivity enhancement ratio): 1.419
Cal27 cells; [4]
  α (linear quadratic model): 0.471
  β (linear quadratic model): 0.009
Cal27 cells; Cal27, 60 nM pevonedistat
  SF4: 4.457
  SER (sensitivity enhancement ratio): 1.812
Cal27 cells; [5]
  α (linear quadratic model): 0.906
  β (linear quadratic model): −0.020
Cal27 cells; Cal27, 80 nM pevonedistat
  SF4: 2.702
  SER (sensitivity enhancement ratio): 2.702
FaDu cells; [6]
  α (linear quadratic model): 0.105
  β (linear quadratic model): 0.017
FaDu cells; 10 nM pevonedistat
  SF4: 8.979
  SER (sensitivity enhancement ratio): 1.055
FaDu cells; [7]
  α (linear quadratic model): 0.242
  β (linear quadratic model): 0.006
FaDu cells; 20 nM pevonedistat
  SF4: 7.987
  SER (sensitivity enhancement ratio): 1.186
FaDu cells; [8]
  α (linear quadratic model): 0.241
  β (linear quadratic model): 0.014
FaDu cells; 40 nM pevonedistat
  SF4: 6.830
  SER (sensitivity enhancement ratio): 1.387
FaDu cells; [9]
  α (linear quadratic model): 0.282
  β (linear quadratic model): 0.013
FaDu cells; 60 nM pevonedistat
  SF4: 6.328
  SER (sensitivity enhancement ratio): 1.49 and 1.497
DM13 cells
  IC50: 0.04 µM
Trl46 HNSCC cells
  apoptosis (% of cells): 65%
[1]
  cullin neddylation: inhibited cullin neddylation
